Experimental data taken from patent publication US20220289794A1, “SYNTHETIC ANTIMICROBIAL PEPTIDES” (priority 2019, published 2022).
In brackets after ≈: the same amount, converted by molar mass. Several values for one entry are separate records, joined by “and”; a condition that tells them apart may be missing. Identical values can stand only once. Like-named read-outs stand apart in the source and are kept apart here. Non-standard residues stand in square brackets, D forms with d. Residues, ends and D or L forms follow the SMILES beside them. 2Nal = N[C@@H](Cc1ccc2ccccc2c1)C(=O)O

Key:
[1] = test system: Clostridium difficile (ATCC 700057); experiment: MIC determination, broth microdilution (CLSI); type: cell-based
[2] = test system: Clostridium difficile (NAP1/027); experiment: MIC determination, broth microdilution (CLSI); type: cell-based
[3] = test system: Methicillin-resistant Staphylococcus aureus MRSA (ATCC BAA-1556); conditions: ATCC BAA-1556
S. aureus ATCC 29213 = conditions: ATCC 29213
[4] = test system: Pseudomonas aeruginosa (ATCC 27883); conditions: ATCC 27883
[5] = test system: Escherichia coli (ATCC 25922); conditions: ATCC 25922
human red blood cells = test system: human red blood cells; design: unit not given beside the values
[6] = test system: Staphylococcus aureus ATCC 33592 (MRSA) biofilm
Description: (§2) Bacteria. The bacterial strains employed in these assays were obtained from the American Type Culture Collection (ATCC). Each strain was propagated as recommended by the ATCC and each strain was stored as a frozen glycerol stock at −80° C.
(§3) Bacterial Propagation. […] Following the incubation, the culture was diluted to an optical density 625 nm (OD625) of 0.1 in cation adjusted Mueller Hinton Broth (CAMHB), which is equivalent to 1×10^8 CFU/mL. The culture was further diluted to 1×10^6 CFU/mL which was used for the assay.
(§4) Determination of the Temporal Effects of SPL7013 Addition to Inhibit Biofilm Formation. Each strain of bacteria was adjusted to a concentration of 1×10^6 CFU/mL and added to a 96-well flat-bottomed plate in a volume of 100 mL. One-hundred microliters (100 mL) of each compound at 10 concentrations was added in triplicate wells. The cultures were incubated for 24 hours at 37° C. under the appropriate growth conditions for each organism. Following the incubation, the media was removed, and the formed biofilms were fixed for 1 hour at 60° C. Two-hundred microliters (200 mL) of 0.06% crystal violet was added to the wells for 5 to 10 minutes and the wells were then gently washed three times with deionized H2O to remove the crystal violet. Following crystal violet staining 200 mL of 70% ethanol was added to the wells.

[7] = test system: P. aeruginosa strain ATCC 47085 biofilm
Description: as §2, §3, §4

[8] = test system: Pseudomonas aeruginosa (PSA, ATCC 27883); experiment: Synergy checkerboard assay (FIC index); type: cell-based; conditions: ATCC27883, 24 h; Table 25; Pseudomonas aeruginosa (ATCC 27883); antibiotic alone
[9] = test system: Pseudomonas aeruginosa (PSA, ATCC 27883); conditions: antibiotics alone and PHY-MIX (1:1 w/w)
[10] = test system: Escherichia coli (E. Coli, ATCC 25922); conditions: antibiotics alone and PHY-MIX (1:1 w/w)
[11] = test system: Klebsiella pneumoniae (KPC, ATCC BAA-1705); conditions: Klebsiella pneumoniae (ATCC BAA-1705); antibiotic alone
KPC = conditions: Table 37; peptides and peptide-capped gold nanoparticles
PSA = conditions: Table 37; peptides and peptide-capped gold nanoparticles
E. coli [12] = conditions: Table 37; peptides and peptide-capped gold nanoparticles
[13] = test system: Methicillin-resistant Staphylococcus aureus MRSA (ATCC BAA-1556); experiment: microbe, parasite or virus in culture; conditions: read-out: MIC MRSA (ATCC BAA-1556)
[14] = test system: Pseudomonas aeruginosa (ATCC 27883); experiment: microbe, parasite or virus in culture
[15] = test system: Escherichia coli (ATCC 25922); experiment: microbe, parasite or virus in culture
[16] = test system: Klebsiella pneumoniae (ATCC BAA-1705); experiment: microbe, parasite or virus in culture
[17] = test system: Pseudomonas aeruginosa (PSA, ATCC 27883); experiment: microbe, parasite or virus in culture; conditions: ATCC27883, 24 h, read-out: Pseudomonas aeruginosa (ATCC 27883) MIC
[18] = test system: Klebsiella pneumoniae (KPC, ATCC BAA-1705); experiment: microbe, parasite or virus in culture; conditions: ATCCBAA1705, 24 h
[19] = test system: Escherichia coli (E. Coli, ATCC 25922); experiment: microbe, parasite or virus in culture; conditions: ATCC25922, 24 h, read-out: Escherichia coli (ATCC 25922) MIC
[20] = test system: Klebsiella pneumoniae (KPC, ATCC BAA-1705); experiment: microbe, parasite or virus in culture; conditions: ATCCBAA1705, 24 h, read-out: MIC of antibiotic
[21] = test system: Staphylococcus aureus ATCC 33592 (MRSA) biofilm; experiment: microbe, parasite or virus in culture; conditions: read-out: inhibition of biofilm formation
Description: as §2, §3, §4

MRSA [22] = experiment: microbe, parasite or virus in culture; conditions: Staphylococcus aureus, ATCCBAA1556 / MRSA, read-out: MIC MRSA (ATCC BAA-1556)
[23] = test system: Escherichia coli (ATCC 25922); type: cell-based
How it was run: (§1)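 MIC was taken as the lowest concentration inhibiting growth, judged by visual or spectrophotometric turbidity. MBC was the lowest concentration reducing viability of the initial inoculum by ≥99.9%. Strains were clinically reported multi-drug-resistant isolates.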

[24] = test system: Klebsiella pneumoniae (ATCC BAA-1705); type: cell-based
How it was run: as §1

[25] = test system: Methicillin-resistant Staphylococcus aureus MRSA (ATCC BAA-1556); type: cell-based
How it was run: as §1

[26] = test system: Pseudomonas aeruginosa (ATCC 27883); type: cell-based; conditions: Table 22
How it was run: as §1

MRSA [27] = experiment: In vivo Galleria Mellonella Assay (MRSA infection); conditions: MRSA-infected G. mellonella, after one week
[28] = test system: Klebsiella pneumoniae (ATCC BAA-1705); conditions: ATCC BAA-1705
[29] = test system: Methicillin-Resistant Staphylococcus aureus (MRSA); conditions: previously shown (Oh et al. 2014), listed as [W4R4]; cited from earlier work
[30] = test system: Pseudomonas aeruginosa (PA01); conditions: previously shown (Oh et al. 2014), listed as [W4R4]; cited from earlier work
[31] = test system: Methicillin-Resistant Staphylococcus aureus (MRSA); conditions: cited from earlier work
E. coli [32] = conditions: cited from earlier work

Q: For `N=C(N)NCCC[C@H](NC(=O)[C@H](CCCNC(=N)N)NC(=O)[C@H](CCCNC(=N)N)NC(=O)[C@@H](N)CCCNC(=N)N)C(=O)N[C@@H](Cc1ccc2ccccc2c1)C(=O)N[C@@H](Cc1ccc2ccccc2c1)C(=O)N[C@@H](Cc1c[nH]c2ccccc12)C(=O)O` [IFX-031-1, NH2-R-R-R-R-NaI-NaI-Trp-OH] (H-RRRR[2Nal][2Nal]W-OH), which MIC90 [1] is on record?
A: 25 µg/mL (≈ 20.4 µM)

Q: And the MIC95 [1]?
A: 25 µg/mL (≈ 20.4 µM)

Q: What about the MIC99 [1] of the same molecule?
A: 25 µg/mL (≈ 20.4 µM)

Q: What about the MIC90 [2] of the same molecule?
A: 25 µg/mL (≈ 20.4 µM)

Q: What about the MIC95 [2] of the same molecule?
A: > 50 µg/mL

Q: And the MIC99 [2]?
A: 25 µg/mL (≈ 20.4 µM)

Q: What about the “MIC MRSA ATCC BAA-1556” value [3] of the same molecule?
A: 6.2 µg/mL (≈ 5.07 µM)

Q: What about the “MIC S. aureus ATCC 29213” value (S. aureus ATCC 29213) of the same molecule?
A: 6.2 µg/mL (≈ 5.07 µM)

Q: And the “MIC P. aeruginosa ATCC 27883” value [4]?
A: 25 µg/mL (≈ 20.4 µM)

Q: What about the “MIC E. coli ATCC 25922” value [5] of the same molecule?
A: 25 µg/mL (≈ 20.4 µM)

Q: What about the HC50 (human red blood cells) of the same molecule?
A: 450

Q: What about the “ability to prevent biofilm formation” value [6] of the same molecule?
A: able to inhibit biofilm formation

Q: And the “ability to prevent biofilm formation” value [7]?
A: able to inhibit biofilm formation

Q: For `CN[C@H](CC(C)C)C(=O)N[C@H]1C(=O)N[C@@H](CC(N)=O)C(=O)N[C@H]2C(=O)N[C@H]3C(=O)N[C@H](C(=O)N[C@H](C(=O)O)c4cc(O)cc(O)c4-c4cc3ccc4O)[C@H](O)c3ccc(c(Cl)c3)Oc3cc2cc(c3O[C@@H]2O[C@H](CO)[C@@H](O)[C@H](O)[C@H]2O[C@H]2C[C@](C)(N)[C@H](O)[C@H](C)O2)Oc2ccc(cc2Cl)[C@H]1O` [Vancomycin, reference compound], which MIC [8] is on record?
A: > 256 µg/mL

Q: What about the MIC90 [1] of the same molecule?
A: 0.63 µg/mL (≈ 0.435 µM)

Q: And the MIC95 [1]?
A: 0.63 µg/mL (≈ 0.435 µM)

Q: What about the MIC99 [1] of the same molecule?
A: 0.63 µg/mL (≈ 0.435 µM)

Q: And the MIC90 [2]?
A: 0.31 µg/mL (≈ 0.214 µM)

Q: What about the MIC95 [2] of the same molecule?
A: 0.31 µg/mL (≈ 0.214 µM)

Q: What about the MIC99 [2] of the same molecule?
A: 0.31 µg/mL (≈ 0.214 µM)

Q: What about the “Pseudomonas aeruginosa (ATCC 27883) MIC” value ([9]; Table 29, [R6W4] (IFX-318)) of the same molecule?
A: >64 µg/mL

Q: And the “Pseudomonas aeruginosa (ATCC 27883) MIC” value ([9]; Table 30, [R5W4K] (IFX-315))?
A: >64 µg/mL

Q: What about the “Pseudomonas aeruginosa (ATCC 27883) MIC” value ([9]; Table 31, [R5W4] (IFX-301)) of the same molecule?
A: >64 µg/mL

Q: What about the “Escherichia coli (ATCC 25922) MIC” value ([10]; Table 29, [R6W4] (IFX-318)) of the same molecule?
A: >64 µg/mL

Q: And the “Escherichia coli (ATCC 25922) MIC” value ([10]; Table 30, [R5W4K] (IFX-315))?
A: >64 µg/mL

Q: And the “Escherichia coli (ATCC 25922) MIC” value ([10]; Table 31, [R5W4] (IFX-301))?
A: >64 µg/mL

Q: And the MIC of antibiotic [11]?
A: > 256 µg/mL

Q: What about the “inhibition of biofilm formation” value ([6]; all other concentrations ([…] to 0.001 μg/mL)) of the same molecule?
A: approximately 50%

Q: And the “MIC Klebsiella pneumoniae (ATCC BAA-1705)” value (KPC)?
A: No effect

Q: And the “MIC Pseudomonas aeruginosa (ATCC 27883)” value (PSA)?
A: No effect

Q: And the “MIC Escherichia coli (ATCC 25922)” value (E. coli [12])?
A: No effect

Q: And the MIC [13]?
A: 0.5 µg/mL (≈ 0.345 µM)

Q: What about the MIC ([14]; ATCC27883, read-out: MIC P. aeruginosa ATCC 27883) of the same molecule?
A: > 256 µg/mL

Q: And the MIC ([14]; ATCC27883, read-out: PSA (ATCC 27883 MIC))?
A: > 512 µg/mL

Q: And the MIC ([15]; ATCC25922, read-out: E. coli (ATCC 25922) MIC)?
A: > 512 µg/mL

Q: What about the MIC ([15]; ATCC25922, read-out: MIC E. coli (ATCC 25922)) of the same molecule?
A: > 256 µg/mL

Q: And the MIC ([16]; ATCCBAA1705, read-out: KPC (ATCC BAA-1705) MIC)?
A: > 512 µg/mL

Q: And the MIC ([16]; ATCCBAA1705, read-out: MIC K. pneumoniae (ATCC BAA-1705))?
A: > 256 µg/mL

Q: What about the MIC [17] of the same molecule?
A: > 64 µg/mL

Q: And the MIC ([18]; read-out: Klebsiella pneumoniae (ATCC BAA-1705) MIC, Table 28, IFX-031, antibiotics alone and PHY-MIX (1:1 w/w))?
A: > 256 µg/mL

Q: And the MIC ([18]; read-out: Klebsiella pneumoniae (ATCC BAA-1705) MIC, Table 29, [R6W4] (IFX-318), antibiotics alone and PHY-MIX (1:1 w/w))?
A: > 256 µg/mL

Q: What about the MIC ([18]; read-out: Klebsiella pneumoniae (ATCC BAA-1705) MIC, Table 30, [R5W4K] (IFX-315), antibiotics alone and PHY-MIX (1:1 w/w)) of the same molecule?
A: > 256 µg/mL

Q: What about the MIC ([18]; read-out: Klebsiella pneumoniae (ATCC BAA-1705) MIC, Table 31, [R5W4] (IFX-301), antibiotics alone and PHY-MIX (1:1 w/w)) of the same molecule?
A: > 64 µg/mL

Q: And the MIC [19]?
A: > 64 µg/mL

Q: What about the MIC [20] of the same molecule?
A: > 256 µg/mL

Q: What about the inhibition at 5000 µg/mL [21] of the same molecule?
A: ~97%

Q: What about the MIC (MRSA [22]) of the same molecule?
A: 0.5 µg/mL (≈ 0.345 µM)

Q: With `N=C(N)NCCC[C@@H]1NC(=O)[C@H](CCCNC(=N)N)NC(=O)[C@H](CCCNC(=N)N)NC(=O)[C@H](Cc2c[nH]c3ccccc23)NC(=O)[C@H](Cc2c[nH]c3ccccc23)NC(=O)[C@H](Cc2c[nH]c3ccccc23)NC(=O)[C@H](Cc2c[nH]c3ccccc23)NC(=O)[C@H](CCCNC(=N)N)NC1=O` [[R4W4], reference compound] (cyclo(RRRRWWWW)) as the molecule, how does the “E. coli (ATCC 25922) MBC” value [23] read?
A: 32 µg/mL

Q: What about the “KPC (ATCC BAA-1705) MBC” value [24] of the same molecule?
A: 64 µg/mL

Q: And the “MRSA (ATCC BAA-1556) MBC” value [25]?
A: 32 µg/mL

Q: What about the “PSA (ATCC 27883) MBC” value [26] of the same molecule?
A: 128 µg/mL

Q: What about the larvae killed (MRSA [27]) of the same molecule?
A: all

Q: And the “MRSA (ATCC BAA-1556) MIC” value [3]?
A: 4 µg/mL

Q: And the “PSA (ATCC 27883 MIC)” value [4]?
A: 64 µg/mL

Q: And the “E. coli (ATCC 25922) MIC” value [5]?
A: 16 µg/mL

Q: What about the “KPC (ATCC BAA-1705) MIC” value [28] of the same molecule?
A: 32 µg/mL

Q: What about the MIC [29] of the same molecule?
A: 2.67 μg/mL and 1.95 μM

Q: What about the MIC [30] of the same molecule?
A: 42.8 μg/mL and 31.3 μM

Q: What about the “interaction with tetracycline in time-kill assays” value [31] of the same molecule?
A: synergistically

Q: And the “interaction with tetracycline in time-kill assays” value (E. coli [32])?
A: synergistically
